# Measured values reported in PMC11355195 (Life, 2024).
# Where two headings read alike, the source gives them in different places.
# Legend:
# MDA-MB-231 = assay: MTT cell viability, MDA-MB-231; type: cell-based, Human; conditions: Homo sapiens, MDA-MB-231; MTT test; 72 h of treatment (Figure 3); read-out: IC50 Value ± SD, MDA-MB-231
# Experimental: (§1) These cell lines were selected to represent distinct sub-types of breast cancer for extensive investigation. […] The medium was added with 10% heat-inactivated fetal calf serum (FCS) to supply vital growth hormones and nutrients necessary for cell proliferation. Additionally, 1% penicillin streptomycin was administered to avoid bacterial contamination, ensuring the sterility and integrity of the cell cultures. The cell cultures were maintained at 37 °C in a humidified environment containing 5% CO2. This controlled environment mimics physiological conditions in the human body, supporting optimal cell development and function. The humidified atmosphere prevents medium evaporation, while the 5% CO2 concentration maintains optimal pH values in the culture medium. These specialized circumstances and methods ensure that the breast cancer cell lines remain healthy and viable for experimental procedures, delivering dependable and reproducible results for research projects. The standard protocols followed for cultivating these cells are crucial for generating consistent and reliable data. Using well-characterized cell lines from a credible source like ATCC ensures the re-liability and comparability of the experimental outcomes.
# (§2) This approach determines cell viability based on the ability of living cells to decrease MTT to a purple, water-insoluble formazan product. Cells were planted in 96-well plates at a density of 1 × 10^4 cells per well in 100 μL of complete culture media, which provides all necessary nutrients for cell growth. […] The cells were then treated with the compounds for 24, 48, and 72 h to determine the effect on cell viability over varied time intervals. Following each incubation time, 20 μL of MTT solution (at a concentration of 5 mg/mL in PBS) were applied to each well. The plates were further incubated for 4 h at 37 °C, during which time live cells decrease the MTT to formazan, creating purple crystals. At the end of the incubation, the medium containing the MTT was carefully aspirated, leaving only the formazan crystals in the bottom of the wells. […]
# ABTS scavenging activity = assay: ABTS scavenging activity
# Excerpt: With a few minor adjustments, the procedure published by Re et al., was used to evaluate the test samples’ capacity to scavenge radicals against the ABTS (2,2′-azinobis-3-ethylbenzothiazoline-6-sulphonate) radical cation.
# MDA-MB-436 = assay: MTT cell viability, MDA-MB-436; type: cell-based, Human; conditions: Homo sapiens, MDA-MB-436; MTT test; 72 h of treatment (Figure 3); read-out: IC50 Value ± SD, MDA-MB-436
# Experimental: as §1, §2
# MCF-7 cells = conditions: ref Seresht et al. (2019) [79], cited from earlier work
# DPPH scavenging capacity = conditions: 0.1 mM DPPH
# Experimental: The method utilized to test the compound’s efficacy in scavenging DPPH radicals was based on protocols detailed in references, with minor changes. The test was completed in duplicate for each concentration. A solution of 0.1 mM DPPH (2,2-diphenyl-1-picrylhydrazyl) was produced, and the compounds were evaluated at different concentrations ranging from 1 to 500 µg/mL. Ascorbic acid served as the positive control with concentrations ranging from 0.01 to 300 µg/mL [35].
# [1] = Oxygen radical absorbance capacity (ORAC); conditions: Trolox equivalents
# Experimental: The ORAC (Oxygen Radical Absorbance Capacity) test was carried out using a modified version of the procedure reported by Huang et al.. This test examines the antioxidant capacity of compounds by examining their ability to neutralize oxygen radicals. The method was carried out utilizing a 96-well microplate format. First, 150 µL of fluorescein solution, produced as 8 × 10^−8 M fluorescein in 0.075 M phosphate buffer (pH 7.4), were dispersed to each well. Fluorescein is a fluorescent probe whose fluorescence lowers when it reacts with radicals. Next, 25 µL of the substance or mixture to be evaluated was added to the corresponding wells. Wells containing 25 µL of phosphate buffer served as blanks, and wells containing 25 µL of Trolox solution (from 10 to 100 µm) were utilized as standards. Control wells containing 50 µL phosphate buffer without any radicals were also added to provide a baseline. The reaction was initiated by adding 25 µL of a freshly produced solution of AAPH (2,2′-azobis(2-methylpropionamidine) dihydrochloride) at a concentration of 165.94 mM in phosphate buffer to each well, except for the control wells, at a temperature of 37 °C. AAPH creates peroxyl radicals that induce oxidative stress in the fluorescein solution, simulating free-radical attack. […] The fluorescence in-tensity of the mixture was then monitored at regular intervals for 120 min.
# 5-LOX = target: T1, 5-LOX (Glycine max, UniProt P08170); assay: 5-Lipoxygenase (5-LOX) inhibition
# T1 sequence (P08170 1-839): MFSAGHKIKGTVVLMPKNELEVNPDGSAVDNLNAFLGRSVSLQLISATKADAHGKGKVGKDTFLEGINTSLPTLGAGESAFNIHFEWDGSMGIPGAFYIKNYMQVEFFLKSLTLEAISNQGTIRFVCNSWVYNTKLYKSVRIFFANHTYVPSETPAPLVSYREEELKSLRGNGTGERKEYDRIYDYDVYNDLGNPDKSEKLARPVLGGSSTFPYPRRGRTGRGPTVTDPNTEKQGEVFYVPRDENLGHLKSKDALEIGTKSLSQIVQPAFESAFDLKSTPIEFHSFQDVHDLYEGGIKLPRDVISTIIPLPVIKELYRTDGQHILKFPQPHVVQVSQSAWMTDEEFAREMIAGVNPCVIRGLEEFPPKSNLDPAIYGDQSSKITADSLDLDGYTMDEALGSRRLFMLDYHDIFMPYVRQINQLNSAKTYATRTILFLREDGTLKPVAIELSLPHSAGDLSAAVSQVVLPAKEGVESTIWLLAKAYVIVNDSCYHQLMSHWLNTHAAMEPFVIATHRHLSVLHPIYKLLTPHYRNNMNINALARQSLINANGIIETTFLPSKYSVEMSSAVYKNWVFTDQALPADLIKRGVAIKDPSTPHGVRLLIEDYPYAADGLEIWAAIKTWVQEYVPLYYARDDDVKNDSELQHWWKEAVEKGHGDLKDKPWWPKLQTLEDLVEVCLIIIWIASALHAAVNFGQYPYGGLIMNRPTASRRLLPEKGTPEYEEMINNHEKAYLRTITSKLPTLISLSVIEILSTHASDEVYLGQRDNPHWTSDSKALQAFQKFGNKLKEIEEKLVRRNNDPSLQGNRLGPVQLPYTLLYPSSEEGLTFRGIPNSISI
# Excerpt: The % inhibition of hydrogen peroxide formation, an indication of lipoxygenase inhibitory action, was computed according to the formula: Inhibition percentage%=Acontrol−Ablank−Asample−Ablank/Acontrol−Ablank where Acontrol, Ablank and ASample represent the absorbances of the control well, blank, and test sample, respectively.
smiles,measurement,setting,value
"Cc1ccc(C(C)C)c(O)c1 [Thymol, 2-isopropyl-5-methylphenol]",IC50,MDA-MB-231,8.22 ± 0.94 µg/mL
same,ABTS Scavenging Activity IC50,ABTS scavenging activity,125.31 ± 6.25 µg/mL
same,IC50,MDA-MB-436,15.8 ± 1.69 µg/mL
same,IC50 on MCF-7 cells,MCF-7 cells; 48 h,54 µg/mL
same,IC50 on MCF-7 cells,MCF-7 cells; 72 h,62 µg/mL
same,DPPH Scavenging Capacity IC50,DPPH scavenging capacity,161.02 ± 6.89 µg/mL
same,Oxygen Radical Absorbance Capacity,[1],2.341 ± 0.009 mmol TE/g
same,IC50,5-LOX,308 µM
